Experimental data: the supplement of paper PMC10307832

Compound: O=C(CCCCCCC(=O)Nc1ccccc1)NO [Vorinostat] + CC(C)C[C@H](NC(=O)[C@H](Cc1ccccc1)NC(=O)c1cnccn1)B(O)O [Bortezomib] (partner 0.002 µM)
Test: relative viability (nuclei count vs DMSO), 5 days (fraction); higher = more cells survive
How it was run: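 Each reported value is a median over duplicate plates. It expresses relative viability: treated-well nuclei count divided by vehicle-well nuclei count. Lung cancer cell lines in 1536-well plates were dosed by pin tool a day after seeding, alone with one drug or with a fixed anchor-drug dose plus five library-drug doses (not always all listed) in √10 steps, and nuclei were counted after 5 days.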

Row | Cell Line | relative viability (first compound 0.253 µM) | relative viability (first compound 0.8 µM) | relative viability (first compound 2.53 µM) | relative viability (first compound 8 µM)
1 | EMC-BAC-2 | 1.22 | 1.02 | 0.405 | 0.167
2 | SW 1573 | 1.11 | 1.1 | 0.565 | 0.0796
3 | NCI-H2347 | 0.971 | 0.843 | 0.561 | 0.199
4 | NCI-H650 | 0.523 | 0.42 | 0.19 | 0.144
5 | NCI-H1975 | 0.438 | 0.198 | 0.0889 | 0.081
6 | NCI-H3122 | 1.07 | 0.995 | 1.03 | 0.145
7 | LC-2-ad | 1.01 | 0.579 | 0.146 | 0.0588
8 | HCC-366 | 1.09 | 0.872 | 0.0664 | 0.0198
9 | NCI-H2023 | 1.16 | 0.657 | 0.223 | 0.07
10 | PC-3 [JPC-3] | 0.846 | 0.85 | 0.398 | 0.216
11 | LOU-NH91 | 0.514 | 0.475 | 0.438 | 0.354
12 | LCLC-97TM1 | 0.724 | 0.413 | 0.121 | 0.0563
13 | NCI-H2405 | 1.06 | 1.01 | 0.952 | 0.206
14 | HCC-827 | 1.03 | 1.11 | 0.913 | 0.451
15 | LCLC-103H | 1.16 | 0.893 | 0.391 | 0.238
16 | NCI-H2009 | 1.32 | 0.567 | 0.233 | 0.126
17 | COR-L 105 | 1.3 | 0.617 | 0.292 | 0.267
18 | NCI-H441 | 0.299 | 0.26 | 0.165 | 0.106
19 | ChaGo-K-1 | 0.954 | 0.932 | 0.467 | 0.282
20 | EPLC-272H | 0.742 | 0.744 | 0.275 | 0.12
21 | SK-LU-1 | 0.678 | 1.22 | 0.248 | 0.163
22 | NCI-H2228 | 0.979 | 0.389 | 0.188 | 0.097

Row | Cell Line | relative viability (first compound 0.253 µM) | relative viability (first compound 0.8 µM) | relative viability (first compound 2.53 µM) | relative viability (first compound 8 µM)
23 | NCI-H1734 | 1.14 | 0.96 | 0.417 | 0.109
24 | COR-L23 | 0.985 | 0.683 | 0.131 | 0.0488
25 | HARA | 1.1 | 0.928 | 0.149 | 0.0288
26 | NCI-H1792 | 1.01 | 0.902 | 0.637 | 0.0799
27 | NCI-H1563 | 0.977 | 0.778 | 0.579 | 0.503
28 | LU99A | 1.09 | 0.863 | 0.298 | 0.158
29 | LXF-289 | 1.08 | 0.923 | 0.348 | 0.057
30 | CAL-12T | 1.22 | 0.984 | 0.406 | 0.148
31 | NCI-H2087 | 0.739 | 0.608 | 0.159 | 0.115
32 | NCI-H647 | 1.18 | 0.609 | 0.0719 | 0.0336
33 | NCI-H1915 | 1.01 | 0.951 | 0.54 | 0.112
34 | HCC-15 | 1.15 | 0.973 | 0.518 | 0.13
35 | NCI-H1666 | 0.798 | 0.461 | 0.251 | 0.189
36 | UMC-11 | 0.672 | 0.56 | 0.0652 | 0.0503
37 | PC-14 | 0.913 | 0.847 | 0.102 | 0.073
38 | NCI-H661 | 0.839 | 0.933 | 0.439 | 0.185
39 | RERF-LC-KJ | 1.2 | 1.04 | 0.423 | 0.286
40 | 201T | 1.11 | 1.1 | 1.1 | 0.641
41 | NCI-H2085 | 0.942 | 0.841 | 0.566 | 0.265
42 | H3255 | 0.778 | 0.622 | 0.456 | 0.154
43 | A-427 | 0.991 | 1.04 | 0.723 | 0.21
44 | NCI-H1703 | 0.262 | 0.23 | 0.156 | 0.133

Row | Cell Line | relative viability (first compound 0.253 µM) | relative viability (first compound 0.8 µM) | relative viability (first compound 2.53 µM) | relative viability (first compound 8 µM)
45 | NCI-H520 | 0.605 | 0.164 | 0.13 | 0.107
46 | ABC-1 | 0.297 | 0.281 | 0.175 | 0.194
47 | NCI-H1437 | 0.578 | 0.417 | 0.117 | 0.0915
48 | HCC-44 | 0.886 | 0.883 | 0.514 | 0.109
49 | NCI-H2126 | 1.13 | 1.13 | 0.943 | 0.371
50 | NCI-H1993 | 1.17 | 1.13 | 0.461 | 0.411
51 | NCI-H460 | 1.12 | 0.783 | 0.0198 | 0.0125
52 | NCI-H838 | 1.22 | 0.864 | 0.275 | 0.134
53 | EKVX | 1.14 | 1.11 | 0.561 | 0.175
54 | HCC-78 | 0.495 | 0.265 | 0.119 | 0.126
55 | NCI-H1355 | 1.3 | 0.978 | 0.863 | 0.131
56 | NCI-H596 | 0.942 | 0.693 | 0.663 | 0.258
57 | IA-LM | 1.03 | 0.547 | 0.161 | 0.0471
58 | HOP-62 | 1.25 | 0.434 | 0.328 | 0.0711
59 | BEN | 0.941 | 0.479 | 0.201 | 0.0496
60 | NCI-H1755 | 0.95 | 0.934 | 0.2 | 0.174
61 | NCI-H322M | 1.4 | 1.25 | 0.715 | 0.392
62 | NCI-H1651 | 0.934 | 0.992 | 0.807 | 0.1
63 | NCI-H727 | 0.928 | 0.613 | 0.324 | 0.233
64 | NCI-H23 | 1.19 | 1.07 | 0.251 | 0.128
